Assay: pH of the spray dried powder
Type: physicochemical
Method: In one exemplary embodiment, an aqueous solution of creatine sodium sulfate can be produced by dissolving about 72.96 grams of sodium hydrogen sulfate in about 811.86 grams of deionized water. The solution can be heated to about 145° F. and is maintained throughout the reaction. When the temperature of the sodium hydrogen sulfate solution reaches about 145° F., about 90.63 grams of creatine monohydrate can be added to the solution whereby the heat is maintained at about 145° F. and the mixture mixes with standard agitation for approximately 1 hour. After the hour, the solution is immediately piped to the spray dryer whereby it is spray dried into a powder with a total water of 3-7% by weight and with a water activity of less than 0.4. The pH of the spray dried powder is approximately 1.7. The mesh size of the spray-dried, stable, soluble sodium hydrogen sulfate powder is approximately 40-200 mesh, but can be adjusted depending on the requirements of the customer or desired end application.
In another exemplary embodiment, an aqueous solution of creatine potassium sulfate can be produced by dissolving about 109.53 grams of potassium hydrogen sulfate in about 806.68 grams of deionized water. The solution is can be heated to about 145° F. and is maintained throughout the reaction. […]

Row | SMILES | pH of the spray dried powder
1 | CN(CC(=O)O)C(=N)N.O=S(=O)([O-])[O-].[K+].[K+] [creatine potassium sulfate] | approximately 1.7
2 | CN(CC(=O)O)C(=N)N.O=S(=O)([O-])[O-].[Na+].[Na+] [creatine sodium sulfate] | approximately 1.7

Source: patent US20240075002A1, “CREATINE COMPOSITION AND METHODS OF USING SAME” (NanoChem Solutions, Inc, priority 2022, published 2024)
